Source: patent US9804152B1, “Human ex vivo skin model and its use in methods of identifying modulators of skin inflammation” (The Procter & Gamble Company, priority 2012, dated 2017)

Tests used:
Assay type in all cases: cell-based
[1] = system: endogenously inflamed ex vivo human skin sample; assay: Inhibitors of endogenous inflammation: IL-8/IL-6 secretion by ex vivo skin samples; settings: for IL-8 secretion: endogenously inflamed skin sample, without inhibitor about 2,600 pg/ml; for IL-8 secretion / IL-8 expression (secretion): day 3; for IL-8 expression: not induced, untreated 1045 pg/ml; for inhibition of endogenous inflammation, conclusion in words: IL-8 as marker; for fold-regulation in secretion (expression) of IL-6 / fold-regulation in secretion (expression) of IL-8: endogenously inflamed skin; for IL-8 expression (secretion): untreated (endogenous) skin sample
Excerpt: (§1) This Example describes the materials and methods used in preparing ex vivo skin samples for use according to the methods disclosed herein. Materials used in preparation of ex vivo skin samples for use in the disclosed screening methods included: Dulbecco's Modified Eagle Medium (DMEM) plus Glutamax, antibiotic and antimycotics, 1× phosphate-buffered saline (PBS), 150×15 mm sterile culture dishes, sterile gauze 4×4, disposable safety scalpels, 4 mm disposable biopsy punch, 6-well cell-culture inserts, disinfected tweezers, cotton-tipped applicators, 6-well culture plates, ruled, disinfected cutting mat (12×12), scraper handle, tissue freezing medium, biopsy cassettes, frozen-tissue freezing vessels, 10% formalin, shipping containers for fixed tissue, and biohazard/sharps containers. Media was prepared in advance of the arrival of ex vivo skin. The skin arrived with the dermis (fat) side down on sterile DMEM soaked gauze in a sterile culture dish. The culture dish was taped shut and in a biohazard zip-lock baggie on an ice pack in a secondary container.
(§2) On arrival, the skin was removed from the bag and soaked in 3×DMEM media (3× refers to concentration of antibiotic and antimycotics) and stored at 4° C. for 1 hour. After 1 hour, the skin was removed from the 3×DMEM and rinsed with sterile 1×PBS. The skin was placed in a clean culture dish containing gauze soaked with 1×DMEM. The sample was put in culture the same day as arrival. If necessary, however, the ex vivo skin samples can be stored at 4° C. overnight.
(§3) In preparation for culture, the following was performed: on a cutting mat, the skin was flipped over so that the epidermis was down and the subcutis (fat) was exposed. The fat was removed with a disposable scalpel by carefully grasping one corner of the skin with sterile serrated forceps and scraping the fat away with the blade held at a 45° angle to the skin. After the fat was removed, the surgical edges were cut off with a scalpel using a scraper as a straight edge guide and to hold the skin in place. Using the scraper as a guide, the skin was cut into 1.25 cm (2×2 squares on grid) wide strips using a ruler to measure the width. The strip was rinsed in a 100 mm culture dish containing 1×PBS. The strips were cut into 1.25 cm^2 squares and placed in a 100 mm culture dish on 1×DMEM-soaked gauze until they were put into culture 30 minutes later.
(§4) Culture plates were prepared that included 2.5 ml of media or media with treatment (e.g., a candidate modulator, an inflammation inducer, and/or an inhibitor of inflammation) in each well of a 6-well plate. One Millicell culture insert was added to each well and 100 μl of 1× DMEM was put in the center of each insert membrane. Squares of skin tissue were selected randomly and placed into each of the inserts (one piece of skin per insert), on top of the media on the membrane. The plates were stored at 33° C., with fresh media changes daily. As a control, baseline tissue measurements were collected from excess waste (cryogenics were used for snap-freezing). Baseline biopsy collection included two 4 mm punches for an MTT colorimetric assay (described below); one 4 mm punch was snap-frozen in OCT tissue compound for fresh histology; one 4 mm punch was fixed in 10% formalin and sent out for paraffin embedding. Expression measurements of inflammation marker genes were performed using PCR and primers appropriate to the known sequence of the gene(s) of interest.
(§5) Culturing and treatment of the ex vivo skin model comprised replicates of n=5. Before experimental treatment, compounds (e.g., a candidate modulator, an inflammation inducer, or a suppressor of inflammation) were solubilized in appropriate solvents (including PBS, media, alcohol, and DMSO). Appropriate dilutions were made for treatment and 15 ml of media was used per plate per day for treatment, with 2.5 ml of media per well under the cell culture insert. Media was pre-warmed and changed every day during the experiment.

[2] = system: induced inflamed ex vivo human skin sample (IL-17 + IL-22); assay: Inhibitors of IL-17/IL-22-induced inflammation: IL-8 secretion by ex vivo skin samples; settings: for IL-8 expression: induced by IL-17 (200 ng/ml)/IL-22 (20 ng/ml), day 4, induced alone 1798 pg/ml; for inhibition of IL-17/IL-22 induced inflammation, conclusion in words: IL-8 as marker; for IL-8 expression (secretion): IL-17/IL-22-induced inflammation, day 3, induced alone about 3,800 pg/ml
[3] = system: endogenously inflamed ex vivo human skin sample; assay: Inhibitors of endogenous inflammation: inflammation marker gene expression in ex vivo skin samples; settings: 10 μM clobetasol
Excerpt: as §1, §2, §3, §4
as §5, with “experiment. […]” for “experiment.”

[4] = system: induced inflamed ex vivo human skin sample (IL-17 + IL-22); assay: Inhibitors of IL-17/IL-22-induced inflammation: inflammation marker gene expression in ex vivo skin samples
Excerpt: as §1, §2, §3, §4
as §5, with “experiment. […]” for “experiment.”

[5] = system: ex vivo human skin sample; assay: Inducers of inflammation: inflammation marker secreted into the media by ex vivo skin samples (ELISA); settings: IL-1β 10 ng/ml on first four days of eight-day experiment
Excerpt: as §1, §2
In preparation for culture, the following was performed: on a cutting mat, the skin was flipped over so that the epidermis was down and the subcutis (fat) was exposed. The fat was removed with a disposable scalpel by carefully grasping one corner of the skin with sterile serrated forceps and scraping the fat away with the blade held at a 45° angle to the skin. After the fat was removed, the surgical edges were cut off with a scalpel using a scraper as a straight edge guide and to hold the skin in place. […]

[6] = system: ex vivo human skin sample; assay: Inducers of inflammation: inflammation marker gene expression in ex vivo skin samples (PCR)
Excerpt: as §1, §2, §3, §4, §5

[7] = endogenously inflamed, 0.6 nM betamethasone, 0.08 μM hydrocortisone, 30 μM ketoprofen, 35 μM arlatone

Compound: c1cnc2c(c1)ccc1cccnc12 [1,10-phenanthroline]
- IL-8 secretion ([1]; topical 1.2 μg/ml 1,10-phenanthroline): about 900 pg/ml

Compound: O=c1cc(-c2ccc(O)cc2)oc2cc(O)cc(O)c12 [apigenin]
- IL-8 expression ([2]; 25 μM apigenin): 1276 pg/mL
- inhibition of IL-17/IL-22 induced inflammation, conclusion in words [2]: does not appear to function effectively to inhibit induced inflammation
- IL-8 expression ([1]; 25 μM apigenin, day 4): 106 pg/mL
- inhibition of endogenous inflammation, conclusion in words [1]: functions effectively in inhibiting endogenous inflammation

Compound: C[C@H]1C[C@H]2[C@@H]3CCC4=CC(=O)C=C[C@]4(C)[C@@]3(F)[C@@H](O)C[C@]2(C)[C@@]1(O)C(=O)CCl [clobetasol]
- IL-8 expression (secretion) ([2]; 1 pg/cm^2 topical clobetasol): about 1,100 pg/cm^2
- IL-8 secreted into the media ([2]; 10 μM clobetasol with 200 ng/ml IL-17 and 20 ng/ml IL-22, day 4, induced without inhibitor about 13,600 pg/ml): about 4,400 pg/ml
- IL-8 expression ([2]; 10 μM clobetasol): 65 pg/mL
- inhibition of IL-17/IL-22 induced inflammation, conclusion in words [2]: functions effectively as an inhibitor of both endogenous and induced inflammation
- gene expression of key inflammatory markers (nine marker genes, FIG. 8), in words ([3]; endogenous inflammation): appropriately inhibits gene expression of key inflammatory markers
- S100A7 expression, in words [3, 7]: inhibited S100A7 expression
- rank ordering of inflammation inhibitors based on IL-8 and IL-6 inhibition levels [3, 7]: most effective inhibitor
- reduction in the three markers (IL-6, IL-8, and TNFa), rank ordering of efficacy in words (FIG. 15) [3, 7]: shows the greatest reduction
- gene expression of IL-8, IL-6, S100A7 and DEFB4, in words ([3]; topical, day 3 (72 hours), 1.2 μg/ml 1,10-phenanthroline, endogenous inflammation): inhibited expression of IL-8, IL-6 and S100A7
- fold-regulation in secretion (expression) of IL-6 ([1]; 10 μM clobetasol, donor 1 of 5): −3.28 fold
- fold-regulation in secretion (expression) of IL-8 ([1]; 10 μM clobetasol, donor 1 of 5): −2.72 fold
- fold-regulation in secretion (expression) of IL-6 ([1]; 10 μM clobetasol, donor 2 of 5): −3.55 fold
- fold-regulation in secretion (expression) of IL-8 ([1]; 10 μM clobetasol, donor 2 of 5): −2.72 fold
- fold-regulation in secretion (expression) of IL-6 ([1]; 10 μM clobetasol, donor 3 of 5): −8.69 fold
- fold-regulation in secretion (expression) of IL-8 ([1]; 10 μM clobetasol, donor 3 of 5): −3.68 fold
- fold-regulation in secretion (expression) of IL-6 ([1]; 10 μM clobetasol, donor 4 of 5): −5.70 fold
- fold-regulation in secretion (expression) of IL-8 ([1]; 10 μM clobetasol, donor 4 of 5): −3.89 fold
- fold-regulation in secretion (expression) of IL-6 ([1]; 10 μM clobetasol, donor 5 of 5): −2.20 fold
- fold-regulation in secretion (expression) of IL-8 ([1]; 10 μM clobetasol, donor 5 of 5): −1.76 fold
- IL-8 expression ([1]; 10 μM clobetasol, day 4): 50 pg/mL
- IL-8 secreted into the media ([1]; 10 μM clobetasol, otherwise untreated sample, day 4, untreated about 5,800, 0.01% DMSO about 8,000 pg/ml): about 400 pg/ml
- inhibition of endogenous inflammation, conclusion in words [1]: functions effectively as an inhibitor of both endogenous and induced inflammation
- IL-8 secretion ([1]; topical 10 μM clobetasol): about 300 pg/ml
- IL-8 expression (secretion) ([1]; topical clobetasol 1 μg/cm^2 skin surface, reduction from about 1,200 pg/ml): about 200 pg/ml
- IL-6 expression relative to control values ([4]; 10 μM clobetasol with IL-17 (200 ng/ml) and IL-22 (20 ng/ml), induced alone about 6-fold): about 0.3 fold
- IL-8 expression relative to the untreated control ([4]; 10 μM clobetasol with IL-17 (200 ng/ml) and IL-22 (20 ng/ml), induced alone about 16-fold): about 3 fold
- S100A7 expression relative to the untreated control ([4]; 10 μM clobetasol with IL-17 (200 ng/ml) and IL-22 (20 ng/ml), induced alone about 34-fold): about 26 fold
- DEFB4 expression relative to controls ([4]; 10 μM clobetasol with IL-17 (200 ng/ml) and IL-22 (20 ng/ml), induced alone about 800-fold): about 200 fold
- gene expression of key inflammatory markers (nine marker genes, FIG. 8), in words ([4]; 10 μM clobetasol, IL-17 (200 ng/ml) + IL-22 (20 ng/ml) driven inflammation): appropriately inhibits gene expression of key inflammatory markers
- IL-6 expression level in the presence of the inducers and clobetasol, in words ([4]; 10 μM clobetasol, IL-17 (200 ng/ml) and IL-22 (20 ng/ml)): lower than the IL-6 expression level in untreated skin cells
- expression levels of IL-8, IL-6, S100A7 and DEFB4, in words ([4]; 10 μM clobetasol, inflammation induced by IL-17 (200 ng/ml) and IL-22 (20 ng/ml)): significantly reduced expression levels

Compound: C[C@]12CCC(=O)C=C1CC[C@@H]1[C@@H]2[C@@H](O)C[C@@]2(C)[C@H]1CC[C@]2(O)C(=O)CO [hydrocortisone]
- rank ordering of inflammation inhibitors based on IL-8 and IL-6 inhibition levels [3, 7]: followed by betamethasone, hydrocortisone, ketoprofen and arlatone
- reduction in the three markers (IL-6, IL-8, and TNFa), rank ordering of efficacy in words (FIG. 15) [3, 7]: less robust

Compound: CC(C(=O)O)c1cccc(C(=O)c2ccccc2)c1 (centres unmarked) [ketoprofen]
- CALML5 expression, in words [3, 7]: slightly inhibiting expression
- FLG expression, in words [3, 7]: slightly inhibited expression
- rank ordering of inflammation inhibitors based on IL-8 and IL-6 inhibition levels [3, 7]: followed by betamethasone, hydrocortisone, ketoprofen and arlatone
- reduction in the three markers (IL-6, IL-8, and TNFa), rank ordering of efficacy in words (FIG. 15) [3, 7]: less robust

Compound: S=[Se]=S [selenium sulfide]
- IL-8 secretion, in words ([1]; selenium sulfide 0.04-25 μM (0.04, 0.2, 1, 5, 25 μM), endogenous inflammation, dose response): decreased secretion levels of IL-8

Compound: IL-1β: pro-inflammatory cytokine used as inducer of inflammation
- TNF-α expression (amount of biomarker present in the media) ([5]; increase from about 65 pg/ml): about 120 pg/ml
- IL-6 expression (amount of biomarker present in the media) ([5]; increase from an average of about 8.2 ng/ml): ≤ 12.3 ng/mL
- induction of inflammation in ex vivo skin samples, in words [6]: shown to induce inflammation in ex vivo skin samples
- fold-change in IL-8 expression ([6]; 100 pg/ml IL-1β, after 1 day): 3.28 fold
- fold-change in TNF-α expression ([6]; 100 pg/ml IL-1β, after 1 day): −1.21 fold
- fold-change in IL-8 expression ([6]; 100 pg/ml IL-1β, after 2 days): 2.58 fold
- fold-change in TNF-α expression ([6]; 100 pg/ml IL-1β, after 2 days): 1.34 fold
- fold-change in IL-8 expression ([6]; 100 pg/ml IL-1β, after 3 days): 7.88 fold
- fold-change in TNF-α expression ([6]; 100 pg/ml IL-1β, after 3 days): 1.37 fold
- fold-change in IL-8 expression ([6]; 100 pg/ml IL-1β, after 4 days): 5.47 fold
- fold-change in TNF-α expression ([6]; 100 pg/ml IL-1β, after 4 days): 2.67 fold
- fold-change in IL-8 expression ([6]; 100 pg/ml IL-1β, after 6 days): 2.42 fold
- fold-change in TNF-α expression ([6]; 100 pg/ml IL-1β, after 6 days): −1.29 fold
- fold-change in IL-8 expression ([6]; 100 pg/ml IL-1β, after 10 days): 9.02 fold
- fold-change in TNF-α expression ([6]; 100 pg/ml IL-1β, after 10 days): 1.19 fold
- HMGCR expression relative to untreated controls, at termination ([6]; 100 pg/ml IL-1β, end of 10-day experiment): about 0.8 fold
- ceramide synthase 3, increase in expression ([6]; IL-1β, both 10 pg/ml and 100 pg/ml, day 10): ~1.5 fold

Compound: IL-17: pro-inflammatory cytokine used as inducer of inflammation
- induction of inflammation in ex vivo skin samples, in words [6]: shown to induce inflammation in ex vivo skin samples

Compound: zinc pyrithione [ZPT]
- IL-8 expression (secretion) ([2]; 0.4 μg/cm^2 topical ZPT): about 2,300 pg/ml
- inhibition of IL-17/IL-22 induced inflammation, conclusion in words [2]: did inhibit IL-17. IL-22 induced inflammation
- inhibition of endogenous inflammation, conclusion in words [1]: did not significantly inhibit endogenous inflammation
- IL-8 expression (secretion) ([1]; topical 0.4 μg/cm^2 zinc pyrithione, without inhibitor about 1,200 pg/ml): about 2,000 pg/ml
